From patent publication US20150105377A1, “Methods and Compositions for RAF Kinase Mediated Diseases” (ARIAD Pharmaceuticals, Inc., priority 2012, published 2015)

Legend:
C-RAF = biological target: T1, C-RAF (Homo sapiens, UniProt P04049); experiment: Kinase inhibition assay (Reaction Biology Corporation); assay type: biochemical; conditions: 10 μM ATP, 10-point curve
T1 construct: purchased Reaction Biology Corporation (Malvern, Pa.), contract assay service

[1] = test system: C32 BRAF V600E het melanoma cell line; experiment: Cell growth assay (automated cell line screening, Ricerca Biosciences); assay type: cell-based; conditions: Homo sapiens, read-out: Ponatinib GI50 (nM), tested by Ricerca Biosciences
Description: (§1) Cell growth was assessed using the Cell Titer 96 Aqueous One Solution Cell Proliferation Assay (Promega) and absorbance was measured using a Wallac Victor microplate reader (PerkinElmer). To differentiate between a cytostatic and cytotoxic drug effect, the concentration that causes 50% growth inhibition (GI50) was determined by correcting for the cell count at time zero (time of treatment) and plotting data as percent growth relative to vehicle-treated cells using XLfit version 5.2.0 for Microsoft Excel. Data are shown as mean from 3 independent experiments performed in triplicate.
(§2) Cell growth assays were also performed as part of an automated cell line screening assay (Ricerca Biosciences, LLC, Bothell, Wash., USA). Experimental procedures are similar to those described above.

[2] = test system: CHL-1 BRAF wt melanoma cell line; experiment: as above; assay type: cell-based; conditions: Homo sapiens, read-out: Ponatinib GI50 (nM), CHL-1, Melanoma, tested by Ricerca Biosciences
Description: as §1, §2

[3] = test system: A375 BRAF V600E melanoma cell line; experiment: Cell growth assay; assay type: cell-based; conditions: Homo sapiens, A-375, read-out: Ponatinib GI50 (nM), 72 hours
Description: as §1

[4] = test system: SH-4 BRAF V600E melanoma cell line; experiment: Cell growth assay; assay type: cell-based; conditions: Homo sapiens, read-out: Ponatinib GI50 (nM), SH-4, Melanoma, 72 hours
Description: as §1

[5] = test system: HT-29 BRAF V600E colorectal cancer cell line; experiment: Cell growth assay; assay type: cell-based; conditions: Homo sapiens, read-out: Ponatinib GI50 (nM), HT-29, Colorectal, 72 hours
Description: as §1

[6] = test system: SK-MEL-24 BRAF V600E melanoma cell line; experiment: Cell growth assay; assay type: cell-based; conditions: Homo sapiens, read-out: Ponatinib GI50 (nM), SK-MEL-24, Melanoma, 72 hours
Description: as §1

[7] = test system: MEK or ERK1/2 phosphorylation in A375 BRAF V600E mutant melanoma cancer cells; experiment: Immunoblot analysis of BRAF signaling; assay type: cell-based; conditions: FIG. 1B
Description: (§3) Cells were lysed in SDS lysis buffer (0.06 M Tris-HCL. 1% SDS and 10% glycerol) and protein concentration was determined using a BCA Protein assay (Thermo Scientific). Cellular lysates ([…]) were resolved by electrophoresis and transferred to nitrocellulose membranes using NuPage Novex reagents (Invitrogen). Membranes were immunoblotted with the indicated antibodies (Cell Signaling Technology) and then exposed to Supersignal ELISA femto maximum sensitivity substrate (Thermo Scientific) to generate a chemiluminescent signal.

[8] = test system: MEK or ERK1/2 phosphorylation in SH-4 BRAF V600E mutant melanoma cancer cells; experiment: Immunoblot analysis of BRAF signaling; assay type: cell-based; conditions: SH-4 cells, FIG. 2B
Description: as §3

[9] = test system: MEK or ERK1/2 phosphorylation in HT-29 BRAF V600E mutant colorectal cancer cells; experiment: Immunoblot analysis of BRAF signaling; assay type: cell-based; conditions: HT-29 cells, FIG. 4B
Description: as §3

T1 sequence (P04049 whole entry): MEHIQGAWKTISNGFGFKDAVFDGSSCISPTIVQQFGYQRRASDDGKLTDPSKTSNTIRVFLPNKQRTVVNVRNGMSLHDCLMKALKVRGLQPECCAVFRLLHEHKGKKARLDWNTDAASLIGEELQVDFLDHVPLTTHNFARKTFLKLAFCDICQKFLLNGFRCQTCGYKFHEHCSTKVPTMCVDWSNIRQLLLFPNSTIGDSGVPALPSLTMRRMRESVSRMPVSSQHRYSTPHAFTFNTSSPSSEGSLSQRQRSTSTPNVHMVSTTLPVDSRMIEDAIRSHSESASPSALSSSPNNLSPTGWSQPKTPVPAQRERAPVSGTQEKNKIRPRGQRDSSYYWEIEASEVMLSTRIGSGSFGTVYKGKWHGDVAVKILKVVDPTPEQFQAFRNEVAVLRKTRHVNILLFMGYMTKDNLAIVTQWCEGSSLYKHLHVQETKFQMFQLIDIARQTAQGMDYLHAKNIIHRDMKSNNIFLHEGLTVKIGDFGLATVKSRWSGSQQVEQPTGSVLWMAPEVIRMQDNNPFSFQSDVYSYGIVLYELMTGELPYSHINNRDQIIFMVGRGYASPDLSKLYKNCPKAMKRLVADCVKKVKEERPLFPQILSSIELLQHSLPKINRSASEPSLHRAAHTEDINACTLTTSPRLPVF

SMILES	IC50 (C-RAF; Table 2) [nM]	further results
CC(=O)Nc1cccn2c(C#Cc3cc(C(=O)Nc4cc(C(F)(F)F)ccn4)ccc3C)cnc12 [Example 10, 3-((8-Acetamidoimidazo[1,2-a]pyridin-3-yl)ethynyl)-4-methyl-N-(4-(trifluoromethyl)pyridin-2-yl)benzamide]	–	IC50 (C-RAF; Table 1): 2.42 nM
Cc1ccc(-c2nc3cc(C(F)(F)F)ccc3[nH]2)cc1C#Cc1cnc2cccnn12	5.8	–
Cc1ccc(C(=O)Nc2cc(N3CCOCC3)cc(C(F)(F)F)c2)cc1C#Cc1cnc2cccnn12	17.2	–
Cc1ccc(C(=O)Nc2ccc(CN3CCN(C)CC3)c(C(F)(F)F)c2)cc1C#Cc1cnc2cccnn12 [Ponatinib, 3-(Imidazo[1,2-b]pyridazin-3-ylethynyl)-4-methyl-N-(4-((4-methylpiperazin-1-yl)methyl)-3-(trifluoromethyl)phenyl)benzamide]	–	GI50 [1]: 107 nM; GI50 [2]: 88.5 nM; GI50 [3]: 372 nM; GI50 [4]: 85.6 nM; GI50 [5]: 354 nM; GI50 [6]: 767 nM; MEK or ERK1/2 phosphorylation [7]: inhibit; MEK or ERK1/2 phosphorylation [8]: inhibit; MEK or ERK1/2 phosphorylation [9]: inhibit
Cc1ccc(C(=O)Nc2cc(-n3cnc(C#N)c3)cc(C(F)(F)F)c2)cc1C#Cc1cnc2ccccn12	998	–
Cc1ccc(C(=O)Nc2ccc(CN3CCN(C)CC3)c(C(F)(F)F)c2)cc1C#Cc1cnc2cnccn12 [Example 2, 3-(Imidazo[1,2-a]pyrazin-3-ylethynyl)-4-methyl-N-(4-((4-methylpiperazin-1-yl)methyl)-3-(trifluoromethyl)phenyl)benzamide]	–	IC50 (C-RAF; Table 1): 2.13 nM
CNC(=O)CNc1ccc(NC(=O)c2ccc(C)c(C#Cc3cnc4ccccn34)c2)cc1C(F)(F)F	29.5	–
Cc1ccc(C(=O)Nc2cc(N(C)CCO)cc(C(F)(F)F)c2)cc1C#Cc1cnc2cccnn12	14.4	–
Cc1ccc(C(=O)Nc2cc(C(F)(F)F)ccc2NCCN2CCCC2)cc1C#Cc1cnc2ccccn12	24.3	–
Cc1cc(C#Cc2cnc3cccnn23)cc(C(=O)Nc2cccc(C(F)(F)F)c2)c1	2940	–
CN1CCN(Cc2ccc(NC(=O)c3cccc(C#Cc4cnc5ccccn45)c3)cc2C(F)(F)F)CC1	26.7	–
Cc1ccc(C(=O)Nc2cc(-n3ccnc3)cc(C(F)(F)F)c2)cc1C#Cc1cnc2c(N)cccn12	51.1	–
CN1CCN(Cc2ccc(NC(=O)c3ccc(F)c(C#Cc4cnc5ccccn45)c3)cc2C(F)(F)F)CC1	51.7	–
Cc1ccc(C(=O)Nc2cc(-n3ccnc3)cc(C(F)(F)F)c2)cc1C#Cc1cnc2c(NC(N)=O)cccn12	12.7	–
Cc1ccc(C(=O)Nc2ccc(C#N)c(C(F)(F)F)c2)cc1C#Cc1cnc2ccccn12	57.3	–
Cc1ccc(C(=O)Nc2ccc(Cl)cc2)cc1C#Cc1cnc2cccnn12	10.7	–
Cc1ccc(C(=O)Nc2cc(-n3cnc(CN4CCCC4)c3)cc(C(F)(F)F)c2)cc1C#Cc1cnc2cccnn12	9.19	–
CC(=O)Nc1cccn2c(C#Cc3cc(C(=O)Nc4cccc(C(F)(F)F)c4)ccc3C)cnc12	7.3	–
Cc1ccc(C(=O)Nc2ccc(CN3CCCC3)c(C(F)(F)F)c2)cc1C#Cc1cnc2ccccn12	60.2	–
Cc1ccc(C(=O)Nc2cc(CN3CCOCC3)cc(C(F)(F)F)c2)cc1C#Cc1cnc2ccccn12	83.1	–
Cc1ccc(C(=O)Nc2ccc(CN3CCN(C)CC3)c(C(F)(F)F)c2)cc1C#Cc1cnc2ccccn12 [Example 8, 3-(Imidazo[1,2-a]pyridin-3-ylethynyl)-4-methyl-N-(4-((4-methylpiperazin-1-yl)methyl)-3-(trifluoromethyl)phenyl)benzamide]	–	IC50 (C-RAF; Table 1): 26 nM
Cc1ccc(NC(=O)c2ccc(CN3CCN(C)CC3)c(C(F)(F)F)c2)cc1C#Cc1cnc2cccnn12 [Example 15, N-(3-(Imidazo[1,2-b]pyridazin-3-ylethynyl)-4-methylphenyl)-4-((4-methylpiperazin-1-yl)methyl)-3-(trifluoromethyl)benzamide]	–	IC50 (C-RAF; Table 1): 12.2 nM
Cc1ccc(C(=O)Nc2ccc(CN3CCOCC3)c(C(F)(F)F)c2)cc1C#Cc1cnc2cnccn12	5.43	–
CC(C)N1CCN(Cc2ccc(NC(=O)c3cncc(C#Cc4cnc5cnccn45)c3)cc2C(F)(F)F)CC1	14.4	–
Cc1ccc(C(=O)Nc2cc(-c3cncnc3)cc(C(F)(F)F)c2)cc1C#Cc1cnc2cccnn12	8.5	–
CN1CCN(Cc2ccc(NC(=O)c3cncc(C#Cc4cnc5cccnn45)c3)cc2Cl)CC1	25.6	–
Cc1ccc(C(=O)Nc2cc(-n3ccnc3CN(C)C)cc(C(F)(F)F)c2)cc1C#Cc1cnc2cnccn12	9.22	–

Second part, led by results:

IC50 (C-RAF; Table 2) [nM]	SMILES	further results
3.84	Cc1ccc(C(=O)Nc2cc(-n3cnc(CN(C)C)c3)cc(C(F)(F)F)c2)cc1C#Cc1cnc2cccnn12	–
3.12	Cc1ccc(NC(=O)c2ccc3ccn(C)c3c2)cc1C#Cc1cnc2cccnn12	–
4.27	Cc1ccc(C(=O)Nc2cc(C(C)(C)C)on2)cc1C#Cc1cnc2cccnn12	–
2.49	Cc1cnc(NC(=O)c2ccc(C)c(C#Cc3cnc4c(NC(N)=O)cccn34)c2)s1	–
2.07	O=C(Nc1cccc(C(F)(F)F)c1)c1cncc(C#Cc2cnc3cccnn23)c1	–
3.96	CN1CCN(Cc2ccc(NC(=O)c3cccc(C#Cc4cnc5cnccn45)c3)cc2Cl)CC1	–
4.78	Cc1ccc(C(=O)Nc2cc(C(F)(F)F)ccn2)cc1C#Cc1cnc2c(N)cccn12	–
3.91	Cc1ccc(C(=O)Nc2ccc(CC(=N)N)c(C(F)(F)F)c2)cc1C#Cc1cnc2cccnn12	–
2.76	Cc1ccc(F)c(NC(=O)c2ccc(C)c(C#Cc3cnc4cccnn34)c2)c1	–
5.09	CC(=O)Nc1cccn2c(C#Cc3cc(NC(=O)Nc4cc(C(F)(F)F)ccn4)ccc3C)cnc12	–
1.45	Cc1ccc(C(=O)Nc2cccc(C(F)(F)F)c2)cc1C#Cc1cnc2cccnn12	–
4.39	Cc1ccc(C(=O)Nc2ccc(C(F)(F)F)cc2)cc1C#Cc1cnc2cccnn12	–
